According to patent US5385893A, “Tricyclopolyazamacrocyclophosphonic acids, complexes and derivatives thereof, for use as contrast agents” (The Dow Chemical Company, priority 1993, dated 1995):

Tests used:
[1] = Prohance versus Magnevist; cited from earlier work
[2] = in vivo; cited from earlier work
[3] = Complexation: percent samarium metal as a complex (Sephadex column); format: physicochemical
Procedure: Metal ligand complexes were prepared by various methods. The methods included mixing of the metal and ligand in aqueous solution and adjusting the pH to the desired value. Complexation was done in solutions containing salts and/or buffers as well as water.
For example, a solution of the ligand is prepared by dissolving the ligand in deionized water (about pH=2). A ligand/metal complex was then prepared by combining the ligand solution with aqueous SmCl3.H2 O (3×^-4 M in 0.01N HCl) containing tracer ^153 SmCl3. After thorough mixing, the percent metal as a complex was determined by passing a sample of the complex solution through a Sephadex™ column, eluting with 4:1 saline (0.85% NaCl/NH4 OH), and collecting 2×3 mL fractions. The amount of radioactivity in the combined elutions was then compared with that left on the resin. Under these conditions, complex was removed with the eluent and non-complexed metal is retained on the resin. By this method complexation was determined to usually be about 95% or greater.
Using the above procedure, the complexes of samarium with […]

[4] = Biodistribution of 153Sm complexes in rats (% injected dose per organ, NaI scintillation counting after tail vein injection); format: in vivo, Sprague Dawley rats; conditions: 2 hours post injection; for Biodistribution: Brain / Biodistribution: Heart / Biodistribution: Kidney / Biodistribution: Large Intestine / Biodistribution: Liver / Biodistribution: Lung / Biodistribution: Small Intestine / Biodistribution: Spleen / Biodistribution: Stomach / Biodistribution: Blood / Biodistribution: Bone / Biodistribution: Muscle: i.v. tail vein; for Biodistribution: Blood: blood assumed 6.5% of body weight; for Biodistribution: Bone: femur x 25; for Biodistribution: Muscle: muscle assumed 43% of body weight; for Ratio Bone/Blood / Ratio Bone/Liver / Ratio Bone/Muscle / Ratio Bone/Spleen: ratio of average % injected dose
Procedure: A stock ^159 GdCl3 (or ^153 SMCl3) solution was prepared by adding 2 μL of 3×10^-4 M ^159 GdCl3 in 0.1N HCl to 2 mL of a 3×10^-4 M GdCl3 carrier solution. Appropriate ligand solutions were then prepared in deionized water. The 1:1 ligand/metal complexes were then prepared by combining the ligands (dissolved in 100-500 μL of deionized water) with 2 mL of the stock ^159 GdCl3 solution, followed by through mixing to give an acidic solution (pH=2). The pH of the solution was then raised to 7.0 using 0.1N NaOH. The percent metal as a complex was then determined by passing a sample of the complex solution through a Sephadex™ G-50 column, eluting with 4:1 saline ([…]) and collecting 2×3 mL fractions. The amount of radioactivity in the combined elutions was then compared with that left on the resin (non-complexed metal is retained on the resin). The pH stability profile was generated by adjusting the pH of an aliquot of the complex solution using 1M NaOH or 1M HCl and determining the percent of the metal existing as a complex using the ion exchange method described above. The Sm results are known by expermintal comparison to be identical for complexation and biodistribution of the ligands of this invention.
Sprague Dawley rats were allowed to acclimate for five days then injected with 100 μL of the complex solution via a tail vein. The rats weighed between 150 and 250 g at the time of injection. […] The amount of radioactivity in each tissue was determined by counting in a NaI scintillation counter coupled to a multichannel analyzer. The counts were compared to the counts in 100 μL standards in order to determine the percentage of the dose in each tissue or organ.
The percent dose in blood was estimated assuming blood to be 6.5% of the total body weight. The percent dose in bone was estimated by multiplying the percent dose in the femur by 25. The percent dose in muscle was estimated assuming muscle to be 43% of the total body weight.
In addition to organ biodistribution, chelates of the compounds of Formula (I) were evaluated for efficiency of bone localization since phosphonates are known for their ability to bind to hydroxyapatite.

[5] = breakdown of the blood/brain barrier allows perfusion; cited from earlier work
[6] = Biolocalization of complexes having an overall charge of +1 (bone uptake); format: in vivo; conditions: complex having an overall charge of +1

| SMILES | Biodistribution: Brain [4] | Biodistribution: Heart [4] | Biodistribution: Kidney [4] | Biodistribution: Large Intestine [4] | Biodistribution: Liver [4] | Biodistribution: Lung [4] | Biodistribution: Small Intestine [4] | Biodistribution: Spleen [4] | Biodistribution: Stomach [4] | Biodistribution: Blood [4] | Biodistribution: Bone [4] | Biodistribution: Muscle [4] | Ratio Bone/Blood [4] | Ratio Bone/Liver [4] | Ratio Bone/Muscle [4] | Ratio Bone/Spleen [4] | further results |
| --- | --- | --- | --- | --- | --- | --- | --- | --- | --- | --- | --- | --- | --- | --- | --- | --- | --- |
| CC(O)CN1CCN(CC(=O)[O-])CCN(CC(=O)[O-])CCN(CC(=O)[O-])CC1.[Gd+3] (stereo not drawn) [Prohance, [1,4,7-tris(carboxymethyl)-10-(2-hydroxypropyl)-1,4,7,10-tetraazacyclododecanato]-gadolinium] | – | – | – | – | – | – | – | – | – | – | – | – | – | – | – | – | side effects [1]: fewer side effects than Magnevist; distribution and elimination [2]: freely distribute in extracellular fluid followed by efficient elimination through the renal system |
| CCOP(=O)(O)CN1Cc2cccc(n2)CN(CP(=O)(O)OCC)Cc2cccc(n2)C1 [BP2EP, N,N'-bis(methylenephosphonic acid ethyl ester)-2,11-diaza[3.3](2,6)pyridinophane] | – | – | – | – | – | – | – | – | – | – | – | – | – | – | – | – | percent metal as a complex ([3]; ligand:metal ratio of 4:1): 98% |
| O=C(O)CN1Cc2cccc(n2)CN(CC(=O)O)Cc2cccc(n2)CN(CC(=O)O)Cc2cccc(n2)C1 [TP3A, N,N',N"-triacetic acid-2,11,20-diaza[3.3.3](2,6)pyridinophane] | – | – | – | – | – | – | – | – | – | – | – | – | – | – | – | – | percent metal as a complex ([3]; ligand:metal ratio of 3:1): 98.6% |
| O=C([O-])CN1Cc2cccc(n2)CN(CC(=O)[O-])Cc2cccc(n2)C1.[153Sm+3] [^153 Sm-BP2A, ^153 Sm N,N'-diacetic acid-2,11-diaza[3.3](2,6)pyridinophane] | 0.01 % INJECTED DOSE | 0.02 % INJECTED DOSE | 0.95 % INJECTED DOSE | 0.04 % INJECTED DOSE | 0.68 % INJECTED DOSE | 0.06 % INJECTED DOSE | 0.80 % INJECTED DOSE | 0.01 % INJECTED DOSE | 0.05 % INJECTED DOSE | 0.43 % INJECTED DOSE | 27.98 % INJECTED DOSE | 0.80 % INJECTED DOSE | 65 | 41 | 35 | 2,798 | – |
| CNC[C@H](O)[C@@H](O)[C@H](O)[C@H](O)CO.CNC[C@H](O)[C@@H](O)[C@H](O)[C@H](O)CO.O=C([O-])CN(CCN(CC(=O)[O-])CC(=O)O)CCN(CC(=O)[O-])CC(=O)O.[Gd+3] [Magnevist, complex of gadolinium with diethylenetriaminepentaacetic acid] | – | – | – | – | – | – | – | – | – | – | – | – | – | – | – | – | usefulness in the diagnosis of brain lesions [5]: extremely valuable in the diagnosis of brain lesions; distribution and elimination [2]: freely distribute in extracellular fluid followed by efficient elimination through the renal system |
| O=C([O-])CN1Cc2cccc(n2)CN(CC(=O)[O-])Cc2cccc(n2)CN(CC(=O)[O-])Cc2cccc(n2)C1.[153Sm+3] [^153 Sm-TP3A, ^153 Sm N,N',N"-triacetic acid-2,11,20-diaza[3.3.3](2,6)pyridinophane] | – | 0.016 % INJECTED DOSE | 0.639 % INJECTED DOSE | 0.156 % INJECTED DOSE | 0.570 % INJECTED DOSE | 0.047 % INJECTED DOSE | 1.426 % INJECTED DOSE | 0.068 % INJECTED DOSE | 0.036 % INJECTED DOSE | 0.437 % INJECTED DOSE | 1.495 % INJECTED DOSE | 0.833 % INJECTED DOSE | 3 | 3 | 2 | 22 | – |
| O=P([O-])([O-])CN1Cc2cccc(n2)CN(CP(=O)([O-])[O-])Cc2cccc(n2)C1.[153Sm+3] [^153 Sm-BP2P, ^153 Sm N,N'-bis(methylenephosphonic acid)-2,11-diaza[3.3](2,6)pyridinophane] | 0.01 % INJECTED DOSE | 0.07 % INJECTED DOSE | 1.21 % INJECTED DOSE | 0.13 % INJECTED DOSE | 3.71 % INJECTED DOSE | 0.17 % INJECTED DOSE | 0.39 % INJECTED DOSE | 0.05 % INJECTED DOSE | 0.20 % INJECTED DOSE | 0.87 % INJECTED DOSE | 60.08 % INJECTED DOSE | 1.53 % INJECTED DOSE | 69 | 16 | 39 | 1,201 | – |
| O=C(O)CN1Cc2cccc(n2)CN(CC(=O)O)Cc2cccc(n2)C1 [BP2A, N,N'-diacetic acid-2,11-diaza[3.3]-(2,6)pyridinophane] | – | – | – | – | – | – | – | – | – | – | – | – | – | – | – | – | bone uptake of complex [6]: displays bone uptake; percent metal as a complex ([3]; ligand:metal ratio of 4:1): 99% |
| O=P(O)(O)CN1Cc2cccc(n2)CN(CP(=O)(O)O)Cc2cccc(n2)C1 [BP2P, N,N'-bis (methylenephosphonic acid) -2,11-diaza[3.3](2,6)pyridinophane] | – | – | – | – | – | – | – | – | – | – | – | – | – | – | – | – | percent metal as a complex ([3]; ligand:metal ratio of 3:1): 95% |
| CCOP(=O)([O-])CN1Cc2cccc(n2)CN(CP(=O)([O-])OCC)Cc2cccc(n2)C1.[153Sm+3] [^153 Sm-BP2EP, ^53 Sm N,N'-bis(methylenephosphonic acid ethyl ester)-2,11-diaza[3.3](2,6)pyridinophane] | 0.01 % INJECTED DOSE | 0.04 % INJECTED DOSE | 0.74 % INJECTED DOSE | 0.25 % INJECTED DOSE | 5.97 % INJECTED DOSE | 0.19 % INJECTED DOSE | 0.33 % INJECTED DOSE | 0.32 % INJECTED DOSE | 0.36 % INJECTED DOSE | 0.45 % INJECTED DOSE | 39.82 % INJECTED DOSE | 1.21 % INJECTED DOSE | 88 | 7 | 33 | 124 | – |
